One series can be described thus: in vivo. Particulars: mouse, plasma, pH 2.3.
The conditions of series [1]: vehicle PEG400:H2O pH 2.3 30:70.
For series [2], the target named is unphosphorylated VEGF-R2Δ50 (Homo sapiens, UniProt P35968, DEL940-989/E990V). Nature of the series: biochemical. As to conditions: for inhibition at 0.05 µM: read-out: FLVK ** (% inhibition); for inhibition at 1 µM: read-out: FLVK ** (% inhibition, cell marked *); for Ki: FLVK ** (Ki), Table 1.
Another series has as its target LCK tyrosine kinase (Homo sapiens, UniProt P06239, C224D/P223M). The series can be described thus: LCK spectrophotometric assay. It counts as biochemical. Particulars: Table 1, compound concentration 1 µM; for inhibition at 1 µM: read-out: Lck-P* (% inhibition); for Lck-P* (% inhibition): 1 µM. On the procedure:
The spectrophotometric assay was carried out as described above for VEGF-R2, except for the following changes in concentration: LCK = 60 nM, MgCl2 = 0 mM, poly(E4Y1) = 20 mM.

A further series in a line: in vitro. It counts as in vitro ADME, human. As to conditions: 2 h; for remaining at 2 h, 5 µM: read-out: % remain (HLM, 2 h). On the procedure:
Compound metabolism in human liver microsomes was measured by LC-MS analytical assay procedures as follows. First, human liver microsomes (HLM) were thawed and diluted to 5 mg/mL with cold 100 mM potassium phosphate (KPO4) buffer. Appropriate amounts of KPO4 buffer, NADPH-regenerating solution (containing B-NADP, glucose-6-phosphate, glucose-6-phosphate dehydrogenase, and MgCl2), and HLM were preincubated in 13 x 100 mm glass tubes at 37 C for 10 min. (3 tubes per test compound--triplicate). Test compound (5 µM final) was added to each tube to initiate reaction and was mixed by gentle vortexing, followed by incubation at 37 °C. At t=0, 2 h, a 250-µL sample was removed from each incubation tube to separate 12 x 75 mm glass tubes containing 1 mL ice-cold acetonitrile with 0.05 µM reserpine. […] Supernatant was transferred to new 12 x 75 mm glass tubes and evaporated by Speed-Vac centrifugal vacuum evaporator. Samples were reconstituted in 200 µL 0.1 % formic acid/acetonitrile (90/10) and vortexed vigorously to dissolve. The samples were then transferred to separate polypropylene microcentrifuge tubes and centrifuged at 14000 x g for 10 min. (Fisher Micro 14, S/N M0017580). For each replicate (#1-3) at each timepoint (0 and 2 h), an aliquot sample of each test compound was combined into a single HPLC vial insert (6 total samples) for LC-MS analysis, which is described below.

Series [3] concerns human umbilical vein endothelial cells (HUVEC). The series can be described thus: HUVEC proliferation assay (VEGF-stimulated, MTT). As to conditions: Homo sapiens, HUVEC, Table 1. It counts as cell-based.
The target of the next series is human FGF-R1 (Homo sapiens, UniProt P11362, C488A/C584S/L457V). Nature of the series: FGF-R spectrophotometric assay. It counts as biochemical. Particulars: Table 1, compound concentration 1 µM; for inhibition at 1 µM: read-out: FGF-P* (% inhibition); for FGF-P* (% inhibition): 1 µM. On the procedure:
The spectrophotometric assay was carried out as described above for VEGF-R2, except for the following changes in concentration: FGF-R = 50 nM, ATP = 2 mM, and poly(E4Y1) =15 mM.

[4] abbreviates: human liver microsomes, 5 µM test compound, 37 °C.
Setting [5] is: + albumin, read-out: HUVEC + albumin IC50.

“And” between values parts separate entries of the source, which are not always exact repeats. Identical values can stand only once. Like-named read-outs stand apart in the source and are kept apart here. Marks after values point to notes of the source that are not given here. A value given as a limit tells only on which side of the number the result lay.

Sequence of LCK tyrosine kinase (P06239 223-509 P223M/C224D): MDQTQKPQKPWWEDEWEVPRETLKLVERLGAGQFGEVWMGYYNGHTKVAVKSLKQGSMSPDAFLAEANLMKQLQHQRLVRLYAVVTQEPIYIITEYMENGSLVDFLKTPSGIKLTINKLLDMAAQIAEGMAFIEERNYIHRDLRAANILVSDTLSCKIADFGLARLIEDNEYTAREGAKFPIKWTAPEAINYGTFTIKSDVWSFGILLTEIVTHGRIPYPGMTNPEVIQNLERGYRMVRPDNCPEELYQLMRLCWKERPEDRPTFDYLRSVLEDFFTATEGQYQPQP
Sequence of human FGF-R1 (P11362 456-766 L457V/C488A/C584S): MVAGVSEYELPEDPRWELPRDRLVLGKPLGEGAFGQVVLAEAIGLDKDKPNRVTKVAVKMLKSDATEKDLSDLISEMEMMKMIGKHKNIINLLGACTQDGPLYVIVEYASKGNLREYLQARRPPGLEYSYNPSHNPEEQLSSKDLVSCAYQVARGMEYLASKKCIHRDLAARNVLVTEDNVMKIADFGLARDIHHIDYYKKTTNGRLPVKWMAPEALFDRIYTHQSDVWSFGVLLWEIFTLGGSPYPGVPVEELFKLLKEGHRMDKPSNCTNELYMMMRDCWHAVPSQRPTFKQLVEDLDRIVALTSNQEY
Sequence of unphosphorylated VEGF-R2Δ50 (P35968 with tags, fused parts or gaps DEL940-989/E990V limits assumed): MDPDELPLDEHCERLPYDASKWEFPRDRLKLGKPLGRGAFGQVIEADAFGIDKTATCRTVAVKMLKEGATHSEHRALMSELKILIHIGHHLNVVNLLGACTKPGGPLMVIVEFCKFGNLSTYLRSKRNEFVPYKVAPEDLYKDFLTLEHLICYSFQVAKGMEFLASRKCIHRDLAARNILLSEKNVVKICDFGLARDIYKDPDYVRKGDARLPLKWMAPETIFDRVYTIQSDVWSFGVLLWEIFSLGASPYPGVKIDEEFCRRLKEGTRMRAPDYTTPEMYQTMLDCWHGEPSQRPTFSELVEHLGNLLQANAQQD

Consider `Cc1cc(C(=O)Nc2cc(C(=O)c3ccc4c(/C=C/c5ccccn5)n[nH]c4c3)c(C)cc2C)n(C)n1` [41 (mm)], for which, in “in vivo” (po, 25 mg/kg), the AUC amounted to 2260 ng·h/mL and the half-life is 2.5 h.

`Cc1cc(C(=O)Nc2cccc(C(=O)c3ccc4c(/C=C/c5ccccn5)n[nH]c4c3)c2)cc(Cl)n1` [41 (q)] registered a T1/2 in series [1] (PO, 25 mg/kg) of 5.2 h. This compound had an AUC in the series “in vivo” (ip, 25 mg/kg) of over 27000 ng·h/mL.

Consider `CC(=O)Nc1cc(C(=O)c2ccc3c(/C=C/c4ccccn4)n[nH]c3c2)ccc1C` [41 (gg)], for which the T1/2 in series [1] (PO, 25 mg/kg) was found to be 1.1 h. Further, the AUC in the series “in vivo” (po, 25 mg/kg) was 2690 ng·h/mL.

As to `Cc1cc(C(=O)Nc2cc(C(=O)c3ccc4c(/C=C/c5ccccn5)n[nH]c4c3)ccc2C)n(C(C)C)n1` [Reference Example 41(kk), 6-[3-((1-Isopropyl-3-methyl-1H-pyrazol-5-yl)carboxamido)-4-methylbenzoyl]-3-E-[2-(pyridin-2-yl)ethenyl]-1H-indazole], the inhibition at 0.05 µM in series [2] is 100%. The inhibition at 1 µM turned out to be 26% at LCK tyrosine kinase and 97% at human FGF-R1. Further, the “% remain (HLM, 2 h)” value in the series “in vitro” (setting [4]) amounted to 63%. In addition, the IC50 in series [3] (setting [5]) was determined as 16 nM.

For `O=C(Nc1nccs1)c1ccccc1Sc1ccc2c(/C=C/c3ccccn3)n[nH]c2c1` [Reference Example 35(y), 6-[2-(Thiazol-2-ylcarbamoyl)phenylsulfanyl]-3-E-[2-(pyridin-2-yl)ethenyl]-1H-indazole], in series [2], the inhibition at 0.05 µM worked out at 99%. Besides, the results for the inhibition at 1 µM at LCK tyrosine kinase and at human FGF-R1 were 29% and 82%, respectively. Besides, the “% remain (HLM, 2 h)” value in “in vitro” (setting [4]) amounted to 7%. The IC50 in series [3] (setting [5]) lay in the range of 1 to 3 nM.

For `O=C(NOCC1CC1)c1ccccc1Sc1ccc2c(/C=C/c3ccccn3)n[nH]c2c1` [Reference Example 35(s), 6-[2-((Cyclopropyl)methoxycarbamoyl)phenylsulfanyl]-3-E-[2-(pyridin-2-yl)ethenyl]-1H-indazole], the inhibition at 1 µM in series [2] stood at 60%; on LCK tyrosine kinase it was 18%; on human FGF-R1, 64%. Further, in the series “in vitro” (setting [4]), the remaining at 2 h, 5 µM was found to be 16%. Moreover, in series [3] (setting [5]), the IC50 amounted to 4.6 nM.

`Cc1cc(C(=O)Nc2cc(C(=O)c3ccc4c(/C=C/c5ccccn5)n[nH]c4c3)ccc2C)n(C)n1` [41 (hh)]: in “in vivo” (po, 25 mg/kg), the AUC was 5600 ng·h/mL and the half-life was 7.9 h.

Take `Cc1cc(C(=O)Nc2cccc(C(=O)c3ccc4c(/C=C/c5ccccn5)n[nH]c4c3)c2)nn1C` [Reference Example 41(i), 6-[3-((1,5-dimethyl-1H-pyrazol-3-yl)carboxamido)benzoyl]-3-E-[2-(pyridin-2-yl)ethenyl]-1H-indazole]: the Ki in series [2] is 0.24 nM and 0.04 nM. In addition, the inhibition at 0.05 µM in series [2] came out at 98%. Besides, the “Lck-P* (% inhibition)” value is 16% at LCK tyrosine kinase; 63%* and 38%* at LCK tyrosine kinase (listed as 41(I)). Moreover, the remaining at 2 h, 5 µM in the series “in vitro” (setting [4]) was 48%. In series [3] (read-out: HUVEC IC50), the IC50 worked out at 0.25 nM. In addition, the “FGF-P* (% inhibition)” value is 41% on human FGF-R1; 66% and 76% on human FGF-R1 (listed as 41(I)).

Regarding `Cn1nc(C(C)(C)C)cc1C(=O)Nc1cccc(C(=O)c2ccc3c(/C=C/c4ccccn4)n[nH]c3c2)c1` [41 (n)], the T1/2 came to 3.2 h in series [1] (IP, 25 mg/kg) and 1.9 h in series [1] (PO, 50 mg/kg). Besides, the AUC in the series “in vivo” (ip, 25 mg/kg) is 9410 ng·h/mL; in the series “in vivo” (po, 50 mg/kg), 9070 ng·h/mL.

On to `C=CCn1nc(C)cc1C(=O)Nc1cccc(C(=O)c2ccc3c(/C=C/c4ccccn4)n[nH]c3c2)c1` [41 (t)], for which the T1/2 in series [1] (PO, 25 mg/kg) worked out at 4.0 h. In the series “in vivo” (po, 25 mg/kg), this compound gave an AUC of over 22500 ng·h/mL.

In the case of `COc1cccc(C(=O)Nc2cccc(C(=O)c3ccc4c(/C=C/c5ccccn5)n[nH]c4c3)c2)c1` [41 (bb)], the T1/2 in series [1] (PO, 50 mg/kg) amounted to 2.0 h. Further, in the series “in vivo” (po, 50 mg/kg), the AUC was 2180 ng·h/mL.

In the case of `CC(C)=CC(=O)Nc1cccc(C(=O)c2ccc3c(/C=C/c4ccccn4)n[nH]c3c2)c1` [Reference Example 41(dd), 6-[3-(3,3-dimethylacrylamido)benzoyl]-3-E-[2-(pyridin-2-yl)ethenyl]-1H-indazole], the inhibition at 0.05 µM in series [2] stood at 98%. Also, the inhibition at 1 µM amounted to 50% on LCK tyrosine kinase and 69% at human FGF-R1. Also, the “% remain (HLM, 2 h)” value in “in vitro” (setting [4]) was determined as 7%. In addition, in series [3] (setting [5]), the IC50 was found to be 5.8 nM.

Consider `Cc1cc(C(=O)Nc2cccc(C(=O)c3ccc4c(/C=C/c5ccccn5)n[nH]c4c3)c2)n(C(C)C)n1` [41 (x)], for which the T1/2 in series [1] (PO, 25 mg/kg) is 4.2 h. The AUC in the series “in vivo” (po, 25 mg/kg) was determined as 24200 ng·h/mL.

`O=C(Cc1ccccn1)Nc1cccc(C(=O)c2ccc3c(/C=C/c4ccccc4)n[nH]c3c2)c1` [19(g), 6-[3-(pyridin-2-ylacetamido)benzoyl]-3-E-styryl-1H-indazole] had a Ki in series [2] of 0.86 nM. Moreover, the figures for the inhibition at 1 µM at LCK tyrosine kinase and on human FGF-R1 were 19% and 59%, respectively. For the same compound, the remaining at 2 h, 5 µM in the series “in vitro” (setting [4]) is 90%. Moreover, the IC50 in series [3] (setting [5]) turned out to be 1920 nM; in series [3] (read-out: HUVEC IC50), 18 nM.

Turning to `COc1cccc(C(=O)Nc2cccc(C(=O)c3ccc4c(/C=C/c5ccccn5)n[nH]c4c3)c2)c1` [Reference Example 41(bb), 6-[3-(3-methoxybenzamido)benzoyl]-3-E-[2-(pyridin-2-yl)ethenyl]-1H-indazole], in series [2], the inhibition at 0.05 µM stood at 99%. Besides, the figures for the inhibition at 1 µM at LCK tyrosine kinase and at human FGF-R1 were 76% and 88%, respectively. Further, the “% remain (HLM, 2 h)” value in the series “in vitro” (setting [4]) was 110%. For the same compound, the IC50 in series [3] (setting [5]) fell in the range of 1 to 3 nM.

`COc1cc(C(=O)Nc2cccc(C(=O)c3ccc4c(/C=C/c5ccccn5)n[nH]c4c3)c2)cc(Cl)n1` [41 (u)] showed a T1/2 in series [1] (PO, 25 mg/kg) of 5.6 h. Also, the AUC in “in vivo” (po, 25 mg/kg) worked out at 875 ng·h/mL.

On to `CC(C)ONC(=O)c1cccc(F)c1Sc1ccc2c(/C=C/c3ccccn3)n[nH]c2c1` [Reference Example 37(c), 6-[6-fluoro-2-(isopropoxycarbamoyl)phenylsulfanyl]-3-E-[2-(pyridin-2-yl)ethenyl]-1H-indazole], for which the inhibition at 0.05 µM in series [2] stood at 83%. The inhibition at 1 µM on LCK tyrosine kinase turned out to be 12%; at human FGF-R1, 39%. Moreover, the “% remain (HLM, 2 h)” value in “in vitro” (setting [4]) was determined as 21%. Moreover, in series [3] (setting [5]), the IC50 is 12 nM.

On to `Cn1cccc1C(=O)NNC(=O)c1ccccc1Sc1ccc2c(/C=C/c3ccccn3)n[nH]c2c1` [Reference Example 35(e), 6-[2-((1-methylpyrrol-2-ylhydrazido)carbonyl)phenylsulfanyl]-3-E-[2-(pyridin-2-yl)ethenyl)-1H-indazole], for which the inhibition at 0.05 µM in series [2] was 99%. Further, the inhibition at 1 µM came out at 56% on LCK tyrosine kinase and 69% on human FGF-R1. In “in vitro” (setting [4]), the “% remain (HLM, 2 h)” value is given as 34%. Besides, the IC50 in series [3] (setting [5]) amounted to 4.8 nM.

As for `CCCONC(=O)c1ccccc1Sc1ccc2c(/C=C/c3ccccn3)n[nH]c2c1` [Reference Example 35(t), 6-[2-(n-Propoxycarbamoyl)phenylsulfanyl]-3-E-[2-(pyridin-2-yl)ethenyl]-1H-indazole], the inhibition at 1 µM came out at 59% in series [2], 12% on LCK tyrosine kinase and 63% on human FGF-R1. The “% remain (HLM, 2 h)” value in “in vitro” (setting [4]) is recorded as 7%. In series [3] (setting [5]), the 50% inhibitory concentration (IC50) came out at 4 nM.

Turning to `CCONC(=O)c1cccc(F)c1Sc1ccc2c(/C=C/c3ccccn3)n[nH]c2c1` [Reference Example 37(a), 6-[6-Fluoro-2-(ethoxycarbamoyl)phenylsulfanyl}-3-E-[2-(pyridin-2-yl)ethenyl]-1H-indazole], the inhibition at 0.05 µM in series [2] came out at 57%. The inhibition at 1 µM on LCK tyrosine kinase was 6%; on human FGF-R1, 35%. Besides, the “% remain (HLM, 2 h)” value in the series “in vitro” (setting [4]) was 21, ! %. In addition, the IC50 in series [3] (setting [5]) came to 15 nM.

Take `Cc1cc(C(=O)Nc2cc(C(=O)c3ccc4c(/C=C/c5ccccn5)n[nH]c4c3)c(C)cc2C)n(C)n1` [41(min)]: the inhibition at 0.05 µM in series [2] is 93%. Further, the inhibition at 1 µM was 6% on LCK tyrosine kinase and 46% on human FGF-R1. Besides, the “% remain (HLM, 2 h)” value in “in vitro” (human, microsomes, 5 µM) is reported as 94%. Moreover, the results for the IC50 in series [3] (setting [5]) and in series [3] (read-out: HUVEC IC50) were 14.4 nM and 1.3 nM, respectively.

Usually AUC stands for the area under the concentration-time curve, a measure of exposure. Lower therefore signals low exposure. Broadly, the half-life is the time in which the quantity being followed falls by half. A higher half-life goes with slow decline. What is called inhibition is the share of the control response that was lost under treatment. A word on the IC50: it is the midpoint of a concentration-inhibition curve. By Ki is commonly meant the dissociation constant of the complex between target and ligand, obtained from inhibition or displacement. Lower therefore signals a stronger hold on the target.

(Values after patent EP1614683B1, “Indazole compounds and pharmaceutical compositions for inhibiting protein kinases, and methods for their use” (priority 1999, dated 2001).)
